In patent US20230355501A1, “COSMETIC COMPOSITION” (AJINOMOTO CO., INC., priority 2021, published 2023):

Experiment: Melting point of PHC compositions by differential scanning calorimeter
Format: physicochemical
Details: DSC7000X, approx. 2 mg, nitrogen atmosphere, from 25° C. at 5° C./min
Experimental: PHCs in a mixing ratio shown in Table 2 were mixed in a mortar, to prepare each sample.
Each sample in an amount of approximately 2 mg was heated under a nitrogen atmosphere using a differential scanning calorimeter DSC7000X (Hitachi High-Tech Science Corporation) with the temperature raised from 25° C. at a rate of 5° C./min. The temperature at the intersection of the base line and the inflection point of endothermic peak was taken as the melting point of the sample.

Row | Melting point | SMILES
1 | 124.2 °C | CCCCCCCCCCCCCCCCCC(=O)NC(CO)C(O)C(O)CCCCCCCCCCCCCC (stereo not drawn) [Sample 12, C18:0-PHS18:0]
2 | 126.2 °C | CCCCCCCCCCCCCCCCCC(=O)NC(CO)C(O)C(O)CCCCCCCCCCCCCCCC (stereo not drawn) [Sample 13, C18:0-PHS20:0]
3 | 122.0 °C | CCCCCCCCCCCCCCCCCC(=O)NC(CO)C(O)C(O)CCCCCCCCCCCC (stereo not drawn) [Sample 11, C18:0-PHS16:0]
